Experimental findings from publication PMC7129073 (Clinical Microbiology and Infection, 2015) are described below.

Assay [1] has as its system Pseudomonas aeruginosa (PSA). The assay can be described thus: Vitek 2 susceptibility, urine isolates of children. To be noted: both departments. It counts as cell-based.
The subject of another assay is Acinetobacter. In words: Disk diffusion. It counts as cell-based. Particulars: 37 isolates selected as resistant to beta-lactams. For orientation: Agar diffusion results depend on both activity and mobility in agar.
A further assay concerns Pseudomonas spp. The assay can be described thus: MIC. Type of assay: cell-based.
For the next assay, the system named is B. fragilis group. The assay can be described thus: NCCLS broth microdilution, beta-lactamase positive isolates. Type of assay: cell-based, Bacteroides fragilis group. To be noted: 449 isolates. (In general: Dilution methods test growth across graded concentrations, often in twofold steps.)
For assay [2], the system named is inducible Enterobacteriaceae. In words: SMART 2003, intraabdominal isolates. Type of assay: cell-based.
Another assay concerns Enterobacteriaceae. In words: SMART 2003 Europe, microdilution. Particulars: 1948 isolates. Type of assay: cell-based.
In assay [3] the test system is E. coli. In words: SMART 2003 Europe, microdilution. Type of assay: cell-based, Escherichia coli. Particulars: 1106 isolates.
A further assay relates to Klebsiella. In words: SMART 2003 Europe, microdilution. It counts as cell-based, Klebsiella spp. To be noted: 341 isolates.
Another assay has as its system A. baumannii. In words: Italian survey of severe infections 2003, MIC. It counts as cell-based, Acinetobacter baumannii.
In another assay the test system is B.cepacia. In words: Italian survey of severe infections 2003, MIC. It counts as cell-based, Burkholderia cepacia.
A further assay has as its system Escherichia coli (ECO). In words: Broth microdilution. Particulars: 2001. Type of assay: cell-based.
The subject of another assay is E. faecalis. The assay can be described thus: E-test susceptibility. Type of assay: cell-based, Enterococcus faecalis.
The subject of assay [4] is E. coli. The assay can be described thus: E-test susceptibility. Type of assay: cell-based, Escherichia coli.
Another assay relates to K. oxytoca. The assay can be described thus: E-test susceptibility. It counts as cell-based, Klebsiella oxytoca.
Another assay concerns Enterobacter spp. In words: E-test susceptibility. It counts as cell-based.
A further assay relates to Gram-negative rods. The assay can be described thus: Microscan MIC, blood culture isolates. It counts as cell-based.
The next assay relates to S. aureus SCVs. In words: Resistance of small colony variants from cystic fibrosis patients. It counts as cell-based, Staphylococcus aureus. Particulars: CF patients, Frankfurt 2004.
Assay [5] has as its system Escherichia coli. In words: Vitek 2 susceptibility, urine isolates of children. It counts as cell-based.
Assay [6] concerns Salmonella serotype Enteritidis. The assay can be described thus: Disk diffusion, food isolates Spain. Particulars: n = 96. Type of assay: cell-based.
Assay [7] has as its system Salmonella serotype Typhimurium. In words: Disk diffusion, food isolates Spain. To be noted: n = 53. Type of assay: cell-based.
Assay [8] deals with H. influenzae. Type of assay: cell-based, Haemophilus influenzae.
Another assay deals with S. maltophilia. The assay can be described thus: Susceptibility of respiratory isolates of cancer patients. Type of assay: cell-based, Stenotrophomonas maltophilia. Particulars: 40 patients.
The nature of assay [9]: UTI under TMP-SMX prophylaxis after renal transplantation. It counts as in vivo, human. Particulars: prophylaxis for 12 months; 104 of 336 patients.
The subject of assay [10] is glycopeptide intermediate Staphylococcus species (GISS). In words: VITEK II, screening plate and E test, blood isolates. It counts as cell-based, coagulase-negative Staphylococci. To be noted: 73 GISS strains.
For the next assay, the system named is H.influenzae. In words: PROTEKT Italy, NCCLS microdilution. Type of assay: cell-based, Haemophilus influenzae.
Another assay relates to M. catarrhalis. The assay can be described thus: PROTEKT Italy, NCCLS microdilution. It counts as cell-based, Moraxella catarrhalis.
In assay [11] the test system is H. influenzae. In words: Disk diffusion, sputum isolates Athens 2001–2004. It counts as cell-based, Haemophilus influenzae.
Assay [12] has as its system H. influenzae. The assay can be described thus: Broth microdilution. To be noted: 267 isolates. Type of assay: cell-based, Haemophilus influenzae.
A further assay relates to S. pneumoniae. In words: Broth microdilution. It counts as cell-based, Streptococcus pneumoniae. Particulars: 275 isolates.
A further assay relates to C. albicans. The assay can be described thus: Antifungal susceptibility. Type of assay: cell-based, Candida albicans.
The next assay relates to C. glabrata. The assay can be described thus: Antifungal susceptibility. It counts as cell-based, Candida glabrata.
The next assay concerns Streptococcus pneumoniae. The assay can be described thus: Susceptibility testing. Type of assay: cell-based. Particulars: 99 isolates tested.
The next assay concerns Haemophilus influenzae. In words: Susceptibility testing. Type of assay: cell-based. To be noted: conjunctival isolates 2000–2004.
The test system of assay [13] is Staphylococcus aureus. The assay can be described thus: Susceptibility testing. It counts as cell-based. Particulars: conjunctival isolates 2000–2004.
Assay [14] has as its system Staphylococcus coagulase negative (CNS). The assay can be described thus: Susceptibility testing. Type of assay: cell-based. To be noted: conjunctival isolates 2000–2004.
In the next assay the test system is K. pneumoniae. The assay can be described thus: MIC. Type of assay: cell-based, Klebsiella pneumoniae. Particulars: BSAC.
Assay [15] has as its system viridans group streptococci (VGS). In words: MIC. Type of assay: cell-based. To be noted: 107 strains.
Assay [16] concerns Salmonella, other 49 serotypes. The assay can be described thus: Disk diffusion, food isolates Spain. Type of assay: cell-based. To be noted: n = 115.
For another assay, the system named is Shigella spp. In words: Disk diffusion, stool isolates Tehran. It counts as cell-based. To be noted: 96 isolates.
Assay [17] relates to biofilms of S. aureus (SA204 and SA195) and S. epidermidis (ATCC35983 and ATCC35984). The assay can be described thus: Antibiotic lock, in vitro biofilm on polyurethane film, viable counts. It counts as cell-based, Staphylococcus species. Particulars: any of the time intervals examined.
The test system of assay [18] is Staphylococcus aureus. In words: EARSS Ireland, invasive isolates. It counts as cell-based.
Assay [19] relates to Escherichia coli. In words: EARSS Ireland, invasive isolates. It counts as cell-based. Particulars: Jan'01–Jun'04, 2432 isolates.
The subject of another assay is nontyphoidal Salmonella. In words: Agar dilution, isolates from chickens 1998–2004. Type of assay: cell-based, Salmonella spp. In general terms: Agar dilution tests growth on a series of plates holding different concentrations.
A further assay relates to enterococci. In words: Disk diffusion, urine isolates of BPH patients. Particulars: strains isolated post-operatively.
Assay [20] deals with E. coli. In words: Disk diffusion, urine isolates of BPH patients. To be noted: strains isolated after operative intervention.
The next assay has as its system P. aeruginosa. In words: Disk diffusion, urine isolates of BPH patients.
[21] abbreviates: ICU, SRGA breakpoints, tigecycline tentative S ≤2 μg/ml.

Some results are limits rather than exact numbers.

On to piperacillin/tazobactam, for which the Susceptible isolates in [1] was 74-100%; with E. coli [4] (setting [21]) it was 98%; in the assay with E. coli [4] (non ICU), 99%; in the assay on K. oxytoca (ICU) it was 100%; in the assay on K. oxytoca (non ICU), 94%; in the assay with Enterobacter spp (ICU), 78%. In the assay with Enterobacter spp (non ICU), this molecule registered a Susceptible isolates of 93%. Further, the resistant isolates in the assay with Acinetobacter turned out to be 43.2%. For the same molecule, the susceptible strains in the assay with Pseudomonas spp. was 92%. Moreover, the “isolates inhibited at =/< 32 mg/L” value in the assay on B. fragilis group is on record as greater than 99%. In addition, the “% susceptible” value in [2] (A/P (N = 200)) worked out at 80%; in assay [2] (EU (N = 354)), 85%; in assay [2] (LA (N=113)) it was 78%; in assay [2] (NA (N = 163)), 82%. In addition, the per cent susceptible was 91% in the assay with Enterobacteriaceae, 94% with E. coli [3] and 85% in the assay with Klebsiella. Further, the resistance was found to be 13.3% in the assay with A. baumannii and 7.2% in the assay on B.cepacia. Besides, the susceptible in the assay on Escherichia coli (ECO) (NAL-resistant isolates) worked out at 85.7%; with Escherichia coli (ECO) (NAL-susceptible isolates), 94.2%. The Susceptibility came out at 99% in the assay on E. faecalis (ICU, SRGA breakpoints, tigecycline tentative ≤2 μg/ml) and 100% in the assay with E. faecalis (non-ICU). Moreover, in the assay on Gram-negative rods, the “susceptible strains (n/N)” value was 16/16.

Consider trimethoprim/sulfamethoxazole, for which, in the assay on S. aureus SCVs, the “resistance rate of SCV isolates” value is reported as “All SCV isolates were resistant”. Further, the susceptibility rate with Escherichia coli [5] (paediatric surgical unit (PSU)) is listed as 35%; in the assay with Escherichia coli [5] (paediatric units (PU)) it was 71%; in the assay with M. catarrhalis (year 1) it was 77.3%; in the assay with M. catarrhalis (year 2), 81.1%. Moreover, the “resistance rate (NCCLS M100-S13)” value in assay [6] is 7%; in assay [7] it was 19%. In addition, the resistant in the assay on H. influenzae [8] worked out at 19%. Moreover, in the assay with S. maltophilia, the Susceptible isolates amounted to 93%. In addition, the “patients with UTI within 2 years after transplantation” value in assay [9] is 31%. Further, the values for the resistance rate (in assay [10]; in the assay with H. influenzae [11] (2001–2002); with H. influenzae [11] (2003–2004)) were 38,3%, 26.9% and 13.4%, respectively. The molecule further showed a resistant isolates with Acinetobacter of 59.5%. Besides, the resistance turned out to be 13.6% in the assay with H.influenzae (year 1) and 14.1% in the assay on H.influenzae (year 2). The susceptible in the assay with H. influenzae [12] amounted to 54.3%. In the assay on S. pneumoniae, this molecule gave a Susceptibility of 46.2%.

In the case of `CC(=O)N1CCN(c2ccc(OCC3COC(Cn4ccnc4)(c4ccc(Cl)cc4Cl)O3)cc2)CC1` (stereo not drawn) [ketokonazole], the intermediate susceptibility amounted to 2% with C. albicans and 22% in the assay on C. glabrata.

Turning to `CNC(C)C1CCC(N)C(OC2C(N)CC(N)C(OC3OCC(C)(O)C(NC)C3O)C2O)O1` (stereo not drawn) [gentamicin], the resistant isolates in the assay on Streptococcus pneumoniae worked out at 45.4%; in the assay with Haemophilus influenzae, 1.6%; in the assay on Staphylococcus aureus [13], 12%; in assay [14], 17.9%; with Acinetobacter, 100.0%; in the assay on Escherichia coli [19], 3.7%. Besides, the “resistance rate of SCV isolates” value in the assay on S. aureus SCVs is 46.2%. Besides, in the assay on K. pneumoniae, the susceptibility category entry was “resistant”. For the same molecule, in assay [15], the high-level resistance was 0.9%. Further, the results for the “resistance rate (NCCLS M100-S13)” value in [6], in [7] and in [16] were 1%, 4% and 0%, respectively. In the assay on Shigella spp., this molecule yielded an intermediatly resistant of 34%. The sensitive with Shigella spp. is 54%. In addition, the resistance rate in assay [10] is given as 87,7%. For the same molecule, the significant biofilm killing result in [17] is on record as “not achieved”. The “resistance amongst MRSA isolates” value in the assay on Staphylococcus aureus [18] (1999) was found to be 58.4%; with Staphylococcus aureus [18] (2003), 13.1%. Moreover, the values for the susceptible in the assay on Escherichia coli (ECO) (NAL-resistant isolates) and in the assay with Escherichia coli (ECO) (NAL-susceptible isolates) were 68.9% and 91.2%, respectively. The resistance with nontyphoidal Salmonella (Belgian collection (caecal samples; Belgium, France, Netherlands)) is given as no more than 1%; with nontyphoidal Salmonella (Germany (carcass meat)), no more than 1%; in the assay on enterococci it was 66.7%; in the assay with E. coli [20] it was 82.7%; with P. aeruginosa it was 86.7%. Further, the Susceptible isolates in the assay with E. coli [4] (setting [21]) was 98/98%; with E. coli [4] (non ICU), 98/98%; in the assay with K. oxytoca (ICU) it was 100/100%; with K. oxytoca (non ICU), 100/100%; in the assay on Enterobacter spp (ICU), 99%; in the assay with Enterobacter spp (non ICU), 100%.
